Entries after “also recorded” stand apart in the source; their conditions may differ.
Assays:
U373 cells = test: Boyden chamber chemotactic cell migration assay; type: cell-based, human; settings: 10 ng/ml growth factor or 10 μM LPA
Experimental: The chemotactic cell migration was carried out as described previously (J. Cell Biol. 162, 1281-1292). Briefly, both sides of the filter were coated with 10 μg/ml rat tail collagen type I at 4° C. overnight. 1×10^5 cells in serum-free medium containing 0.1% BSA were plated in the top of insert. EphrinA1-Fc or Fc was added to a final concentration of 1 μg/ml to the lower chamber together 5% FBS or various growth factors. Cells were allowed to migrate for 4 hours and then fixed with 4% paraformaldehyde. After staining with 0.5% crystal violet, cells that have passed through the filter and stayed on the undersides of inserts were counted.

pS897-EphA2 = test: Immunoblot with polyclonal anti-pS897-EphA2, U373 cells; type: cell-based, human; settings: for induction of pS897-EphA2: serum-starved U373 cells, 10 ng/ml growth factor, 10 min; for serum-induced pS897-EphA2 under FGFR inhibition: U373 cells pretreated with 10 μM SU5402 or 100 nM BU for 30 min, 10% FBS 10 min
Experimental: For stationary cells, sub-confluent cells were stimulated with 1 μg/ml ephrinA1-Fc for different times. To study the signaling events in migrating cells, the monolayer of freshly confluent cells was wounded by repeated scratch-wounding using a multichannel pipette. By doing so, the cells on the wound edges were induced to migrate. Four hours after wounding cells were stimulated with 1 μg/ml ephrinA1-Fc for different times. To look at the serum-induced signaling, cells were starved in serum-free medium overnight before stimulation or wounding. Both stationary and wounded cells were stimulated with 10% FBS in the presence of 1 μg/ml Fc or ephrinA1-Fc. Immunoprecipitation and immunoblot were performed as described previously (Nat. Cell Biol. 2, 62-69).

HGF: growth factor implicated in development of human GBM
chemoattractant activity (chemotactic cell migration) (U373 cells): potent chemoattractants
induction of pS897-EphA2 (pS897-EphA2): capable of inducing pS897-EphA2

EGF: growth factor implicated in development of human GBM (NSDSECPLSHDGYCLHDGVCMYIEALDKYACNCVVGYIGERCQYRDLKWWELR; UniProt P01133 971-1023, looked up)
chemoattractant activity (chemotactic cell migration) (U373 cells): potent chemoattractants
induction of pS897-EphA2 (pS897-EphA2): capable of inducing pS897-EphA2

bFGF: growth factor implicated in development of human GBM
chemoattractant activity (chemotactic cell migration) (U373 cells): potent chemoattractants
induction of pS897-EphA2 (pS897-EphA2): capable of inducing pS897-EphA2

Cc1c[nH]c(/C=C2\C(=O)Nc3ccccc32)c1CCC(=O)O [SU5402, reference compound]
serum-induced pS897-EphA2 under FGFR inhibition (pS897-EphA2): not sufficient for inhibiting serum-induced pS897-EphA2

COc1cc(OC)cc(-c2cc3cnc(N)nc3nc2NC(=O)NC(C)(C)C)c1 [BU, 1-(2-Amino-6-(3,5-dimethoxyphenyl)pyrido[2,3-d]pyrimidin-7-yl)-3-tert-butyl urea, reference compound]
serum-induced pS897-EphA2 under FGFR inhibition (pS897-EphA2): not sufficient for inhibiting serum-induced pS897-EphA2

PDGF
chemoattractant activity (chemotactic cell migration) (U373 cells): potent chemoattractants
induction of pS897-EphA2 (pS897-EphA2): capable of inducing pS897-EphA2

CCCCCCCCCCCCCCCCCCOC[C@H](COP(=O)(O)O[C@H]1[C@H](O)[C@@H](O)[C@H](O)C[C@H]1OC)OC [SH-5, reference compound]
serum-induced pS897-EphA2 (S897 phosphorylation) (pS897-EphA2; serum-starved U373 cells pretreated with 10 μM inhibitor (SH-5 30 min; LY294002 1 hour), FBS 10 min): suppressed S897 phosphorylation; also recorded: abolishes serum-induced pS897-EphA2
